Results published in PubChem BioAssay (NCI).
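The compound was tested at five concentrations on cells cultured in 96-well plates, with a 48-hour exposure period. TGI denotes the concentration required for complete inhibition of growth.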

Experiments:
Experiment in all cases: NCI anticancer screen, dose series, 48 h
[1] = system: OVCAR-5 ovarian
[2] = system: RPMI-8226 leukemia
[3] = system: A549 NSCLC
[4] = system: CAKI-1 renal
[5] = system: SK-MEL-5 melanoma
[6] = system: SNB-19 CNS
[7] = system: NCI-H226 lung
[8] = system: MDA-N
[9] = system: NCI/ADR-RES ovarian
[10] = system: CCRF-CEM leukemia
[11] = system: HL-60(TB) leukemia
[12] = system: M14 melanoma
[13] = system: MCF7 breast
[14] = system: SW-620 colon
[15] = system: A498 renal
[16] = system: NCI-H23 lung
[17] = system: EKVX NSCLC
[18] = system: KM12 colon
[19] = system: MDA-MB-435
[20] = system: LOX IMVI melanoma
[21] = system: K-562 leukemia
[22] = system: HCC-2998 colon
[23] = system: UACC-62 melanoma
[24] = system: SF-295 CNS
[25] = system: HCT-116 colon
[26] = system: NCI-H460 lung
[27] = system: OVCAR-8 ovarian
[28] = system: SK-OV-3 ovarian
[29] = system: MDA-MB-231 breast
[30] = system: T-47D breast
[31] = system: IGROV1 ovarian
[32] = system: HT29 colon
[33] = system: DU-145 prostate
[34] = system: SK-MEL-2 melanoma
[35] = system: OVCAR-4 ovarian
[36] = system: U251 CNS
[37] = system: 786-0 renal
[38] = system: HCT-15 colon
[39] = system: HOP-62 NSCLC
[40] = system: UACC-257 melanoma
[41] = system: ACHN renal
[42] = system: UO-31 renal
[43] = system: MALME-3M melanoma
[44] = system: COLO 205 colon
[45] = system: HOP-92 NSCLC
[46] = system: HS 578T breast
[47] = system: OVCAR-3 ovarian
[48] = system: SK-MEL-28 melanoma
[49] = system: MOLT-4 leukemia
[50] = system: RXF 393 renal
[51] = system: SF-268 CNS
[52] = system: SN12C renal
[53] = system: TK-10 renal
[54] = system: SF-539 CNS
[55] = system: NCI-H522 lung
[56] = system: PC-3 prostate
[57] = system: BT-549 breast
[58] = system: SR leukemia

Measured: TGI

COc1ccc(C2OC(c3ccncc3)=NN2C)cc1F (stereo not given)
not listed: [57] | [58]
> 100 µM: all other assays above

N#CNC(=NCc1ccccc1)N(Cc1ccccc1)Cc1ccccc1
26.7 µM: [5]
85.3 µM: [29]
89.6 µM: [4]
> 100 µM: [6] | [8] | [9] | [13] | [14] | [19] | [21] | [22] | [30] | [33] | [57] | [50] | [56]
26.4 µM: [34]
29 µM: [24]
> 72.9 µM: [58]
29.3 µM: [42]
23.4 µM: [23]
47.7 µM: [49]
not listed: [15] | [17] | [28] | [32] | [40] | [41] | [43] | [44] | [46]
> 31.6 µM: all other assays above
